The values below come from PMC11434645, “Mechanisms of NMDA Receptor Inhibition by Biguanide Compounds” (Pharmaceuticals, 2024).

Read-outs that look alike come from different tables or passages of the source.

The test system of test [1] is native NMDA receptors of rat CA1 hippocampal pyramidal neurons. In words: Whole-cell patch-clamp of NMDA-induced currents in isolated CA1 pyramidal neurons. It counts as cell-based. The following applies: for inhibition of NMDA receptor steady-state currents (in words): 10 µM; for agonist dependence of action: NMDA 30 µM vs 1 mM; for agonist dependence of action / voltage dependence of inhibition (in words): cycloguanil 5 µM, proguanil 10 µM, phenformin 20 µM; for Kd: fit of voltage dependence (+30 to −120 mV) with Equation (2); for δ (fraction of membrane electric field crossed): fit with Equation (2), * = fixed value; for voltage dependence of inhibition (in words): holding potential +30 to −120 mV; for competitive or not competitive inhibition: inhibition compared at 30 µM and 1000 µM NMDA; for % of Inhibition (10 µM) −80 mV: steady-state current, 10 µM compound; for % of trapping in double-pulse protocol / tail currents on coapplication with agonist: cycloguanil 100 µM; for washout of mixture with Mg2+ compared with compound alone: 10 mM Mg2+; for Hill Coeff.: concentration–inhibition curve; for washout τ, compound alone (representative recording) / washout τ, compound + Mg (representative recording): Figure 5; for washout τ, compound + Mg (representative recording): with 10 mM Mg2+; for tail currents on coapplication with agonist: proguanil 100 µM, phenformin 300 µM; for washout time constant τ, compound alone: proguanil 30 µM, magnesium 10 mM. As to the method:
NMDA receptors of these neurons consist mainly of GluN1, GluN2A and/or GluN2B subunits. We initially checked whether 10 µM concentrations of biguanide compounds metformin, phenformin, moroxydine, cycloguanil and proguanil would inhibit these steady-state currents. […] Hill coefficients were 1.0 ± 0.1, 1.1 ± 0.2 and 1.1 ± 0.1 for cycloguanil, proguanil and phenformin, respectively.
All experiments were conducted with approval by the Animal Care and Use Committee of the Sechenov Institute of Evolutionary Physiology and Biochemistry of the Russian Academy of Sciences (protocol 1-13/2023, 26 January 2023). Outbred male Wistar rats (13–18 days old, weighing 25–35 g) were sourced from the IEPHB facility. Maximum efforts were made to minimize the number of animals used and to reduce discomfort.
The rats were decapitated after sevoflurane anaesthetization. The brains were rapidly removed and cooled to 2–4 °C. Transverse hippocampal slices were prepared using a vibratome (Campden Instruments, Loughborough, UK), and single neurons were freed from slices by vibrodissociation. All experiments were performed at room temperature.
The whole-cell patch clamp technique was used to record membrane currents in response to applications of the agonists. Series resistance (<20 MΩ) was compensated by 70–80% and monitored during experiments. Currents were recorded using an EPC-8 amplifier (HEKA Electronics, Lambrecht, Germany), filtered at 5 kHz, sampled and stored on a personal computer. Drugs were applied using an RSC-200 (BioLogic, Seyssinet-Pariset, France) perfusion system under computer control. The extracellular solution contained (in mM) NaCl 143, KCl 5, CaCl2 2.5, D-glucose 18, and HEPES 10 (pH adjusted to 7.4 with […]). The pipette solution contained (in mM) CsF 100, CsCl 40, NaCl 5, CaCl2 0.5, EGTA 5, and HEPES 10 (pH adjusted to 7.2 with CsOH). Proguanil (HY-B0806), cycloguanil (HY-12784), phenformin hydrochloride (HY-16397A), metformin hydrochloride (HY-17471A), moroxydine hydrochloride (HY-B0420A) and ifenprodil tartrate (HY-12882A) were obtained from MedChemExpress (Monmouth Junction, NJ, USA). Other reagents were purchased from MedChemExpress (Monmouth Junction, NJ, USA), Sigma (St. Louis, MO, USA) or Tocris Bioscience (Bristol, UK).
Experiments were performed on pyramidal neurons from the CA1 area of the hippocampus. Unless otherwise specified, NMDA receptors were activated with 100 µM NMDA and 10 µM glycine. The percentage of steady-state current blockage by various drug concentrations was measured at holding voltages of either −80 or −30 mV. Transient processes lasting more than 20 ms were modeled using single or double exponential functions. In the case of double exponential fitting, the weighted time constant was employed.
The voltage dependence of the compounds’ action was analyzed using the classical Woodhull model with the voltage-independent component addition. According to the Woodhull model of an impermeable blocker, the voltage dependence of steady-state blockade is defined by Equation (1):(1) B=100/(1+Kb/C×exp〖Fzδ/RTV〗) where V is voltage; B is the level of the block (%); C is the concentration of the drug; z is the molecular charge; and R, F and T have their standard meanings. Kb is the affinity of a drug for the channel, and δ is the electrical depth of the binding site. The δ value reflects the fraction of membrane electric field that the charged blocking molecule crosses on its pathway between the external media and the binding site in the channel.
Our experimental data were not well fitted by the abovementioned equation, presumably because of the presence of a voltage-independent component. Thus, we used an Equation (2), taking it into account, assuming that the binding to the deep and superficial site is independent:(2) B=100−100/(1+C/(Kvd×exp〖Fzδ/RTV〗)+C/Kvi+(C×C)/(Kvd×exp〖Fzδ/RTV〗×Kvi)) […]

In test [2] the test system is NMDA receptors. Further details: method as in PMID 12009768. The following applies: acute phenformin treatment, cited from earlier work.
Test [3] has as its target NMDA receptors. The following applies: −30 mV in the presence of physiological magnesium concentration; read-out: IC50 of memantine; cited from earlier work.
The mark [4] stands for this setting: read-out: Kvd (affinity for the deep site in the channel pore).
[5] abbreviates: read-out: Kvi (affinity for the superficial, voltage-independent site).
[6] abbreviates: 100 µM NMDA + 10 µM glycine, −80 mV, no Mg2+.
Where [7] appears, read: −30 mV holding voltage, 1 mM Mg2+, read-out: IC50 at −30 mV in the presence of 1 mM Mg2+.
The mark [8] stands for this setting: −30 mV holding voltage, no Mg2+, read-out: IC50 at −30 mV in the absence of Mg2+.
The mark [9] stands for this setting: −80 mV holding voltage, no Mg2+, 100 µM NMDA + 10 µM glycine, read-out: IC50, µM −80 mV.
Where [10] appears, read: −80 mV, Mg 10 mM, Prog 30 µM, Phen 50 µM.
[11] abbreviates: −80 mV, Cyclog 10 µM, Ifen 10 µM.

What is called IC50 is the midpoint of a concentration-inhibition curve. In the case of `[H]/N=C(/N)N/C(=N/[H])NCCc1ccccc1` [Phenformin, phenformin], in test [1], the “mechanism of NMDA receptor inhibition” value is “allosteric inhibitors”, the “agonist dependence of action” value was “more active in conditions of higher agonist concentration”, the “δ (fraction of membrane electric field crossed)” value is recorded as 0.7 * and the “voltage dependence of inhibition (in words)” value is “mostly voltage-independently with a small voltage-dependent component”. In addition, the “competitive or not competitive inhibition” value in test [1] is “not competitive”. In test [1] (−80 mV), the “inhibition of NMDA receptor steady-state currents (in words)” value is given as “significant inhibition”, the “overshoots on washout in the presence of agonists” value (“overshoots on washout” below) is listed as “did not demonstrate overshoots”, the “washout of mixture with Mg2+ compared with compound alone” value (“washout … compared with compound alone” for short) was “significantly faster” and the “Hill Coeff.” value turned out to be 1.1 ± 0.1. Besides, in test [1] (−80 mV), the “washout τ, compound + Mg (representative recording)” value (“washout τ, compound + Mg” below) came to 50 ms and the “tail currents on coapplication with agonist” value (from here on “tail currents on coapplication”) was “tail current absence”. Besides, the Kd in test [1] (setting [4]) is above 500 µM. Besides, in test [1] (setting [5]), the Kd turned out to be 22 ± 2 µM. The “% of Inhibition (10 µM) −80 mV” value in test [1] (setting [6]) was 44 ± 2 (n = 5) %. The “effect of 1 mM Mg2+ on activity at −30 mV” value (from here on “effect of 1 mM Mg2+”) in test [1] (−30 mV holding voltage) is reported as “not affected”. Moreover, the IC50 in test [1] (setting [7]) worked out at 41 ± 6 µM. The IC50 in test [1] (setting [8]) came out at 36 ± 5 µM. Besides, in test [1] (setting [9]), the IC50 turned out to be 13 ± 1 µM. In addition, the “% of trapping in double-pulse protocol” value in test [1] (−80 mV holding voltage) is recorded as below 5%. The “washout τ, compound alone (representative recording)” value (“washout τ, compound alone” for short) in test [1] (setting [10]) is 180 ms. In addition, the “effect on NMDA-induced whole-cell current” value with NMDA receptors [2] (1 µM) is given as “did not affect”. Further, the “effect on calcium responses to NMDA” value in the test on NMDA receptors [2] is recorded as “did not alter”.
For `CC(C(O)c1ccc(O)cc1)N1CCC(Cc2ccccc2)CC1` (stereo not drawn) [ifenprodil], in test [1] (−80 mV), the “washout … compared with compound alone” value is on record as “does not affect” and the “washout τ, compound + Mg” value was 28000 ms. Also, the “washout τ, compound alone” value in test [1] (setting [11]) came out at 28000 ms.
For `CC12CC3CC(C)(C1)CC(N)(C3)C2` [memantine], the half-maximal inhibitory concentration (IC50) at NMDA receptors [3] was 6.4 ± 0.5 µM.
On to `N=C(N)/N=C(\N)N1CCOCC1` [Moroxydine, moroxydine], for which the “inhibition of NMDA receptor steady-state currents (in words)” value in test [1] (−80 mV) is on record as “practically ineffective”. The “% of Inhibition (10 µM) −80 mV” value in test [1] (setting [6]) is recorded as 5 ± 4 (n = 4) %.
On to `[H]/N=C(\N/C(=N/[H])Nc1ccc(Cl)cc1)NC(C)C` [Proguanil, proguanil], for which, in test [1], the “mechanism of NMDA receptor inhibition” value is recorded as “allosteric inhibitors”, the “agonist dependence of action” value is given as “more active in conditions of higher agonist concentration”, the “δ (fraction of membrane electric field crossed)” value was 0.7 * and the “voltage dependence of inhibition (in words)” value is “mostly voltage-independently with a small voltage-dependent component”. Besides, in test [1], the “competitive or not competitive inhibition” value is reported as “not competitive”. In test [1] (−80 mV), the “inhibition of NMDA receptor steady-state currents (in words)” value is recorded as “significant inhibition”, the “overshoots on washout” value was “did not demonstrate overshoots”, the “washout … compared with compound alone” value was “significantly faster” and the “Hill Coeff.” value is given as 1.1 ± 0.2. In test [1] (−80 mV), the “washout τ, compound + Mg” value is 75 ms and the “tail currents on coapplication” value was “tail current absence”. Also, in test [1] (setting [4]), the Kd is above 500 µM. Further, the Kd in test [1] (setting [5]) was 14 ± 1 µM. The “% of Inhibition (10 µM) −80 mV” value in test [1] (setting [6]) is given as 51 ± 6 (n = 5) %. Further, in test [1] (−30 mV holding voltage), the “effect of 1 mM Mg2+” value was “not affected”. Besides, in test [1] (setting [7]), the IC50 is 17 ± 3 µM. In addition, the IC50 in test [1] (setting [8]) amounted to 13 ± 3 µM. Further, the “activity lower than that of memantine (fold)” value in test [1] (−30 mV, 1 mM Mg2+, compared with memantine IC50 of ref 40) was “approximately three-fold”. Moreover, the IC50 in test [1] (setting [9]) stood at 9 ± 2.2 µM. Moreover, in test [1] (−80 mV holding voltage), the “% of trapping in double-pulse protocol” value is below 5%. Moreover, the “washout time constant τ, mixture with Mg2+” value in test [1] (−80 mV, mean ± SD, proguanil 30 µM + 10 mM Mg2+) worked out at 76 ± 32 ms. Moreover, in test [1] (−80 mV, mean ± SD), the “washout time constant τ, compound alone” value turned out to be 470 ± 120 ms. Further, the “washout τ, compound alone” value in test [1] (setting [10]) is recorded as 550 ms.
With `[Mg+2]` [magnesium], the “washout time constant τ, compound alone” value in test [1] (−80 mV, mean ± SD) turned out to be 30 ± 16 ms. Moreover, the “washout τ, compound alone” value in test [1] (setting [10]) came to 30 ms.
As for `CC1(C)N=C(N)N=C(N)N1c1ccc(Cl)cc1` [Cycloguanil, cycloguanil], in test [1], the “mechanism of NMDA receptor inhibition” value is “voltage-dependent trapping channel blocker”, the “agonist dependence of action” value is on record as “agonist-independent”, the “δ (fraction of membrane electric field crossed)” value stood at 0.7 ± 0.1 and the “voltage dependence of inhibition (in words)” value is on record as “clearly voltage-dependent”. For the same molecule, the “competitive or not competitive inhibition” value in test [1] is listed as “not competitive”. Further, in test [1] (−80 mV), the “inhibition of NMDA receptor steady-state currents (in words)” value is “significant inhibition”, the “overshoots on washout” value is “did not demonstrate overshoots”, the “washout … compared with compound alone” value is given as “significantly faster” and the “Hill Coeff.” value was 1.0 ± 0.1. Further, in test [1] (−80 mV), the “washout τ, compound + Mg” value came out at 60 ms and the “tail currents on coapplication” value is given as “tail current absence”. In addition, the Kd in test [1] (setting [4]) is 55 ± 11 µM. In addition, the Kd in test [1] (setting [5]) is above 500 µM. In addition, the “% of Inhibition (10 µM) −80 mV” value in test [1] (setting [6]) was 76 ± 5 (n = 4) %. The “effect of 1 mM Mg2+” value in test [1] (−30 mV holding voltage) is given as “attenuated”. Moreover, the IC50 in test [1] (setting [7]) was 34 ± 10 µM. The IC50 in test [1] (setting [8]) was determined as 20 ± 5 µM. Further, the IC50 in test [1] (setting [9]) turned out to be 3.4 ± 0.6 µM. In addition, the “% of trapping in double-pulse protocol” value in test [1] (−80 mV holding voltage) came out at 68 ± 11%. The “washout τ, compound alone” value in test [1] (setting [11]) stood at 3000 ms.
Regarding `CN(C)C(=N)N=C(N)N` [Metformin, metformin], the “inhibition of NMDA receptor steady-state currents (in words)” value in test [1] (−80 mV) is on record as “practically ineffective”. Further, the “% of Inhibition (10 µM) −80 mV” value in test [1] (setting [6]) is recorded as 6 ± 5 (n = 4) %.
